For assay [1], the system named is STAR reaction (Nt.BstNBI nicking endonuclease, Bst X DNA polymerase; Chlamydia trachomatis cryptic plasmid target).
Procedure: The STAR mixture contained two primers, polymerase, and nicking enzyme (referenced above). Reactions were performed in a final volume of 25 μl, including 1.0 μM of the forward primer, 0.5 μM of the reverse primer, 0.25 μM molecular beacon, 10 μl STAR Master Mix and 5 μl DNA sample. STAR master mix contained the following reagents; 12 mM MgSO4, 90 mM Tris-HCl (pH 8.5), 300 μM each dNTPs, 20 mM (NH4)2SO4, 15 mM Na2SO4, 2 mM. DTT, 0.01% Triton X-100, 15 U nicking endonuclease, 60 U polymerase. […] The temperature of the reactions was controlled, with a relatively high initiation temperature followed by a gradual drop over time, for optimal STAR activity. The initiation phase, primarily involving polymerase activity, was at the elevated temperature of 60° C. for 15 seconds. […] Amplification and STAR product detection were performed with the Agilent Mx3005P qPCR apparatus (Agilent).
For assay [2], the system named is Nb.BbvCI nicking endonuclease. Kind of assay: Nicking Enzyme Activity Assay (NAA) with Nb.BbvCI under isothermal condition. In kind it is biochemical. Particulars: 40 ml RbCl (so in the source), 1x CutSmart Buffer, isothermal 50 °C; four replicates vs control. Here is the method:
The assay comprises use of the following oligonucleotide probe (DLPFQ) (SEQ ID NO: 10 5′/56-FAM/[…].[…]/3BHQ_1/-3′). The oligonucleotide forms a molecular beacon-like probe in solution. […] Upstream of the nicking enzyme binding site is a 5′ fluorophore.
The reactions are run using an isothermal temperature profile, 50° C. […] Each reaction assessed kinetics, enzyme performance, and signal fluorescence.

The subject of assay [3] is Nb.BsmI nicking endonuclease. The note with it: 20 mM Rb2SO4 vs control; STAR temperature profile; average of six replicates.
Source text: The modified NAA was run with and without rubidium using the following conditions.
The Nb.BsmI recognition sequence is GAATG_CN. (The underscore indicates the nick site). The oligonucleotide contains self-complementary sequences and forms a molecular beacon-like probe in solution. The probe has a nicking site for nicking endonuclease activity and a 3′ quencher. Upstream of the nicking binding site is a 5′ fluorophore. When in solution a complex is formed that completes a nicking binding site allowing for the nicking endonuclease to nick. Nb.BsmI is a bottom cutter and therefore will cut on the opposite strand of the nicking binding site. The oligonucleotide quencher 3′ of the nick site, following a nick by a nicking endonuclease, now has a low melting temperature. Because the reaction is performed above this melting temperature, the shortened fragment containing the quencher is released from the complex, generating fluorescence.
The basic NAA mixture contained the probe oligo (DLPFQ) with a 5′-FAM modification and a 3′-BHQ1 modification which folds on itself, and a nicking endonuclease (referenced above). […] The reactions were performed in a final volume of 25 μl, including different concentrations of DLPFQ depending on the nicking enzyme used, and 1×NAA Master Mix. […] Each reaction assessed kinetics, enzyme performance, and signal fluorescence.
Another assay concerns Bst X DNA polymerase. The note with it: 15 mM Rb2SO4 vs no added rubidium; STAR temperature profile; six replicates.
In assay [4] the test system is isothermal amplification reaction (nicking endonuclease, polymerase; primers of Example 1).
Procedure: The basic mixture contains two primers, polymerase, and nicking enzyme (referenced above). […] The reactions were performed in a final volume of 25 μM, including 1.0 μM of the forward primer, 0.5 μM of the reverse primer, 0.25 μM molecular beacon, 10 μM Master Mix and 5 μl DNA sample. The master mix contained the following reagents; 12.5 mM MgSO4, 90 mM Tris-HCl (pH 8.5), 300 μM each dNTPs, 40 mM NH4OAc, 15 mM Na2SO4, 2 mM DTT, 0.01% Triton X-100, 15U nicking endonuclease, 60 U polymerase. […] Amplification and product detection were performed with the Agilent Mx3005P qPCR apparatus (Agilent).
In assay [5] the test system is Nt.BstNBI nicking endonuclease. Particulars: 15 mM Rb2SO4 vs no rubidium; STAR temperature profile; six replicates.
Procedure: The template oligo has a nicking site for nicking endonuclease activity and downstream a 3′ quencher. The priming oligo has the complementary nicking site sequence and a 5′ fluorophore. When in solution the two form a complex that completes a nicking binding site allowing for the nicking endonuclease to cut. The oligonucleotide quencher 5′ of the nick site, following a nick by a nicking endonuclease, now has a low melting temperature. Because the reaction is performed above this melting temperature, the shortened fragment containing the quencher is released from the complex generating fluorescence.
The basic NAA mixture contained the template oligo (NEQ) with a 3′ modification, and the priming oligo (POF) with a 5′-FAM modification which anneals to the template, and a nicking endonuclease (referenced above). The reactions were performed in a final volume of 25 μl, including 1.3 μM NEQ, 1.6 μM POE, and 1×NAA Master Mix. At a 1× concentration, the NAA master mix contained the following reagents; 12.5 mM MgSO4, 90 mM Tris-HCl (pH 8.5), 15 mM NH4CH3CO2, 15 mM Na2SO4, 5 mM DTT, 0.2 mg/ml BSA, 0.02% Triton X-100, 15 mM Rb2SO4, 10 mM L-Threonine, and 0.008 U/μl nicking endonuclease. […] The NAA was performed with the Agilent Mx3005P qPCR apparatus (Agilent). […] Each reaction assessed amplification kinetics, enzyme performance, and signal fluorescence.

Where two headings read alike, the source gives them in different places.

Turning to `CC(=O)[O-].[K+]` [potassium acetate], in assay [1] (salts replaced in buffer, various concentrations), the “effect on STAR (ion replacement)” value is “neither of which improved STAR”.
With `[Cl-].[Rb+]` [rubidium chloride], in assay [2], the “nicking enzyme activity (fluorescence)” value was “increases the activity of Nb.BbvCI nicking endonuclease”.
As for `O=S(=O)([O-])[O-].[Rb+].[Rb+]` [rubidium sulfate], the “grouping of replicate sample results in STAR” value in assay [1] (50 mM rubidium sulfate vs control group) is listed as “more tightly grouped than with the control group”. In addition, in assay [1] (50 mM rubidium sulfate vs no rubidium control), the “effect on STAR amplification” value was “detrimental to amplification, slowing the reaction”. In addition, the “effect on STAR reactions” value in assay [1] (10 to 20 mM rubidium sulphate vs no rubidium control, 100 copies target) is on record as “improved STAR reactions”. The “nicking enzyme activity (fluorescence)” value in assay [3] is on record as “increases the activity of this other nicking endonuclease”; in assay [5], “significantly increased the activity of the nicking enzyme”. The “polymerase activity (fluorescence)” value in the assay on Bst X DNA polymerase is “does not change the activity of the polymerase in any significant manner”. In addition, in assay [4] (15 mM of rubidium sulfate (so in the source), compared with 100 copy reaction without rubidium sulfate), the “performance of 10 copy isothermal reaction” value was “made the 10 copy reaction perform similar to the 100 copy reaction without rubidium sulfate”. Moreover, the “effect on isothermal amplification reaction” value in assay [4] (20 mM rubidium sulfate vs without, 100 and 10 copies template, average of 4 replicates) is given as “improves the isothermal reaction”. The “tightness of replicates in isothermal amplification” value in assay [4] (with vs without rubidium, data not shown) is reported as “tighter than without rubidium”.
Consider `CC(=O)[O-].CC(=O)[O-].CC(=O)[O-].[Sc+3]` [scandium acetate], for which, in assay [1] (all concentrations), the “effect on STAR (ion replacement)” value is given as “fully inhibited the reaction”.
For the compound `CC(=O)[O-].CC(=O)[O-].[Sr+2]` [strontium acetate], the “effect on STAR (ion replacement)” value in assay [1] (10 mM) was “possibly slightly slowed the reaction”; in assay [1] (20 and 50 mM), “fully inhibited the reaction”.

(Values after US12480155B2, “Nicking enzymes” (LumiraDx UK Ltd., priority 2019, dated 2025).)
